Data on 36 molecules can be found in ChEMBL document CHEMBL1201862, “PubChem BioAssay data set” (2004).

Active and inactive are the calls of the source.

The subject of one assay is H4. Put plainly: Luminescence Cell-Based Dose Response HTS to Identify Activators of 5'UTR Stem-Loop Driven Prion Protein mRNA Translation in H4 Neuroglioblastoma Cells. [Related pubchem assays: 1829 (Project Summary), 1814 (Primary HTS)]. Format: functional. To be noted: Homo sapiens.
The nature of assay [1]: Trypanosoma cruzi growth suppression in host cells – NIH3T3 host cells, beta-gal luminescence, confirmation (AID 2044).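 Note: intracellular parasites grown in NIH/3T3 mouse fibroblasts as host cells; luminescent beta-galactosidase reporter signal from transgenic T. cruzi replicating inside host cells; inhibitors lower the luminescence signal.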 Format: functional, cell-based.
Another assay addresses T1, Protein skinhead-1 (Caenorhabditis elegans, UniProt P34707).
T1 sequence (P34707 whole entry): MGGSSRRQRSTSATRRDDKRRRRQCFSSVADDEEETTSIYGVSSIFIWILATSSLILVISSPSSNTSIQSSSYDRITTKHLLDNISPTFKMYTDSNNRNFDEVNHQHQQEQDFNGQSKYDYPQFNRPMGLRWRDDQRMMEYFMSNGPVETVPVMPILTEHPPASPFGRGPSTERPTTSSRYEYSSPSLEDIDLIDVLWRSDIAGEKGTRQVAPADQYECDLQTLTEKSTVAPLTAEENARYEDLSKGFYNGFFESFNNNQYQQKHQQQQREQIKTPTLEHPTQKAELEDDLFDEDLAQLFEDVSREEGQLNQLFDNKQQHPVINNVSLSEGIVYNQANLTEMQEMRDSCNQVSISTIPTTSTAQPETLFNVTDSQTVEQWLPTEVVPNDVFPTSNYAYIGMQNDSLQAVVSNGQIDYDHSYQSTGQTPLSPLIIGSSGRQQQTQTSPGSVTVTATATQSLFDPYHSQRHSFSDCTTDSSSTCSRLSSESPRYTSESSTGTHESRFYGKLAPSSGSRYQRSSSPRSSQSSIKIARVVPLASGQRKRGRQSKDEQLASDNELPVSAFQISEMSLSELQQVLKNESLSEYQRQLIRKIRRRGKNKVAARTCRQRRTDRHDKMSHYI
Format: functional.

Assay [2] is described as follows: NIH-3T3 fibroblast cytotoxicity, dose response, cytotoxicity control, cell-based, fluorescence, Alamar Blue, secondary assay (AID 2327).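 Note: NIH-3T3 mouse fibroblasts cultured with fluconazole at 8 µg/mL.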 Format: functional. Background: Alamar Blue is a resazurin reagent that responds to reducing activity.
Assay [3] in a line: fluconazole-exposed Candida albicans growth modulators – fluorescence, retest, confirmation (AID 2467). In kind it is functional, cell-based.
For assay [4], the target named is FAD-linked sulfhydryl oxidase ALR (Homo sapiens, UniProt P55789). Description: ALR-catalysed DTT oxidation blockers – biochemical, H2O2 detection, luminescence, cherry-pick, dose response (AID 493248).
Chain of FAD-linked sulfhydryl oxidase ALR (P55789 whole entry): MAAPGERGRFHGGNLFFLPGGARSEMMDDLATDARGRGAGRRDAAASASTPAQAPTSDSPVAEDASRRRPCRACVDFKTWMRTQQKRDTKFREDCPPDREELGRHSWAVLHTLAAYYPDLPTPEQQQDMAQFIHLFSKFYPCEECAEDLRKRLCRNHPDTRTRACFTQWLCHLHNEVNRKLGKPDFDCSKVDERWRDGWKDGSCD
For another assay, the target named is T2, Cytochrome P450 1A2 (Homo sapiens, UniProt P05177).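 Note: PubChem cytochrome P450 panel assay, CYP1A2 panel member.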
T2 sequence (P05177 whole entry): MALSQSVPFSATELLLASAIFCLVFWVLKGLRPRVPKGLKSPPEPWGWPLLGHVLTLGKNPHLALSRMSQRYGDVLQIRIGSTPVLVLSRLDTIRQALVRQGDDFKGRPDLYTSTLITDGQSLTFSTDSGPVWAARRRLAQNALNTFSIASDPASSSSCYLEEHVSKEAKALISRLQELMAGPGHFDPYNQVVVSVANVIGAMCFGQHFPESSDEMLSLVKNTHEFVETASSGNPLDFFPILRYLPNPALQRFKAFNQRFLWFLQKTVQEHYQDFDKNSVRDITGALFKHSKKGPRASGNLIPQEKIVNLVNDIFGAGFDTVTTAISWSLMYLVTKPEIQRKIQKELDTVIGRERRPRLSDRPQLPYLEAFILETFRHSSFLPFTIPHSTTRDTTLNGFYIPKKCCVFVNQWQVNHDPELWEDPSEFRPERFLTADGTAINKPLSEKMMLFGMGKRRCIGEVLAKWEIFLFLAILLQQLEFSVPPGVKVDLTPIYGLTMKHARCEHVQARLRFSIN

Another assay has as its target Cytochrome P450 2C9 (Homo sapiens, UniProt P11712).
Assay [5] deals with T3, Ubiquitin-conjugating enzyme E2 N (Homo sapiens, UniProt P61088).
T3 sequence (P61088 whole entry): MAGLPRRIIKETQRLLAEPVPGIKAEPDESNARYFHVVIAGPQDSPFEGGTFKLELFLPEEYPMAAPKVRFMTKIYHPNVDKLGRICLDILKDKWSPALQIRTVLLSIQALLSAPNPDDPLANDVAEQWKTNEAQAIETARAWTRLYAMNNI
Format: functional.

A further assay addresses Cytochrome P450 3A4 (Homo sapiens, UniProt P08684).
Assay [6] is described as follows: luciferase reporter signal suppression in cells – H4 neuroglioma cells, luminescence, dose response (AID 1990). In kind it is functional, cell-based. Background: A reporter such as luciferase makes a cellular process visible.
Assay [7] has as its system Streptococcus sp. 'group A'. Description: Streptococcus pyogenes SK(-)GAS viability under kanamycin – luminescence, BacTiterGlo, confirmation, counter-screen for streptokinase expression inhibitor project, dose response (AID 1900). Format: functional, organism-based. Background: A counterscreen serves to expose hits that act by an unwanted route or on another target.
The nature of assay [8]: Luminescence Cell-Based Dose Response HTS to Identify Inhibitors of 5'UTR Stem-Loop Driven Prion Protein mRNA Translation in H4 Neuroglioblastoma Cells. [Related pubchem assays: 1827 (Project Summary), 1813 (Primary HTS)]. Format: functional.
Assay [9] is described as follows: alpha-synuclein stem-loop luciferase translation blockers – H4 neuroglioma cells, luminescence, confirmation (AID 1988). Format: functional, cell-based.
The nature of assay [10]: NIH3T3 cell viability loss – ATP luminescence, mouse fibroblasts, counter-screen, dose response (AID 2010).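 Note: cells exposed to compound for about 90 hours before reading.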 Format: functional, cell-based.
A further assay relates to Streptococcus. Put plainly: GAS UMAA2166 growth inhibition – luminescence, BacTiterGlo, counter-screen for streptokinase expression inhibitor project, dose response (AID 1915).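 Note: potency for reduction of bacterial viability or growth.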 Format: functional, organism-based.
Another assay concerns INS1. Put plainly: INS-1E survival protection against cytokine death – cell-based, luminescence, retest, dose response (AID 449756).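 Note: cell death triggered by IL-1 beta plus TNF-alpha plus IFN-gamma mixture; protective hits raise ATP signal compared with cytokine alone wells.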 In kind it is functional. The note with it: Rattus norvegicus.
Assay [11] is described as follows: viability of uninfected HEp-2 cells – cell-based, HTS, cytotoxicity control for RSV inhibitor project, dose response (AID 2410). Format: functional. To be noted: human respiratory syncytial virus.
Assay [12] can be described thus: microbe, parasite or virus in culture. Format: functional. The note with it: Mycobacterium tuberculosis.
The nature of assay [13]: Luminescence Cell-Based Dose Retest to Confirm Inhibitors of Cancer Stem Cells. [Related pubchem assays (depositor defined):AID2717, AID2721]. Format: functional. To be noted: Homo sapiens.
A further assay deals with Cytochrome P450 2C19 (Homo sapiens, UniProt P33261). Put plainly: Cytochrome panel assay with activity outcomes. Panel member name: p450-cyp2c19 Compounds with AC50 equal or less than 10 uM are considered active. Format: functional. To be noted: read-out: AC50.
Chain of Cytochrome P450 2C19 (P33261 whole entry): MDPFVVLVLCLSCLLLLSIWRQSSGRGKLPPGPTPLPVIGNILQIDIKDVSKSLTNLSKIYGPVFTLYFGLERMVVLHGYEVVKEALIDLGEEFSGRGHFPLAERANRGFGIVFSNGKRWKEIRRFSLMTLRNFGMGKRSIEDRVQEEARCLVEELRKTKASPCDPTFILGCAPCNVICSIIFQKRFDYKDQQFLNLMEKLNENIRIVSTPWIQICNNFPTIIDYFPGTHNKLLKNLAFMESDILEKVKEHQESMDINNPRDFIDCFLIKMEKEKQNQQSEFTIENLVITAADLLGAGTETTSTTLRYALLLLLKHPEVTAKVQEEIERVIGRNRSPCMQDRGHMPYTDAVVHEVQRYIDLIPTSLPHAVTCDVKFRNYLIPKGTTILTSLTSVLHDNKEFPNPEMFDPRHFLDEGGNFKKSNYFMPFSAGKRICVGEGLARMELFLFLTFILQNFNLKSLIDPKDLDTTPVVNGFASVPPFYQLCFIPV

A word on the EC50: it is the concentration needed to bring the measured effect to its halfway point. The IC50 is the concentration needed to halve the response being measured. A word on the AC50: it is the concentration giving half of the maximal activity seen.

Chain of Cytochrome P450 2C9 (P11712 whole entry): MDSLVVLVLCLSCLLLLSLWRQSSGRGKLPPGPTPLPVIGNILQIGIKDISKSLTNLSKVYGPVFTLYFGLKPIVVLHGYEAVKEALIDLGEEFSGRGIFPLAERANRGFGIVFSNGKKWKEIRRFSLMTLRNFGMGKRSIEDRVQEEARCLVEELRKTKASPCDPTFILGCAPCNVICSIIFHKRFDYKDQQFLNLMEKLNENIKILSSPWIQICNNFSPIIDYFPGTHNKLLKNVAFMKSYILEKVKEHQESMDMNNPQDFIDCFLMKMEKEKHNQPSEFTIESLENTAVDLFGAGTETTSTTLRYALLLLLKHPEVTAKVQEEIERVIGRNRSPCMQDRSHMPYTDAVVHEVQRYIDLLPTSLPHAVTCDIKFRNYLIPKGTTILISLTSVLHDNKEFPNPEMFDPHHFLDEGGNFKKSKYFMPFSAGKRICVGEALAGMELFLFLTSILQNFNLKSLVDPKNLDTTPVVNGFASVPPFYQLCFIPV
Chain of Cytochrome P450 3A4 (P08684 whole entry): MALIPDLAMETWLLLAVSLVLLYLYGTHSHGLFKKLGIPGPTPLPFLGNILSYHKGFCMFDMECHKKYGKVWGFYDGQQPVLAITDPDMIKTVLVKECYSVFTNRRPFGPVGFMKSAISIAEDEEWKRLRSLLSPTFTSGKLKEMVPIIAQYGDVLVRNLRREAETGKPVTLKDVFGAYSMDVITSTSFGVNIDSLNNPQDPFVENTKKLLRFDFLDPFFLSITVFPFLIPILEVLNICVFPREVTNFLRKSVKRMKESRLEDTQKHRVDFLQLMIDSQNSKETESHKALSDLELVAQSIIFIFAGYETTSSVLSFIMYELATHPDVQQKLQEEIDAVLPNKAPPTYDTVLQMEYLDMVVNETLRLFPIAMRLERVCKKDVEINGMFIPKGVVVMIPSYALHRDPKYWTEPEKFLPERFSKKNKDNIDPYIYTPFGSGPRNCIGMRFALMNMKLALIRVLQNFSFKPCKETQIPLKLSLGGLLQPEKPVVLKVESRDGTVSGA

With `O=[N+]([O-])C(/C=C(\Cl)[N+](=O)[O-])=C(N1CCCCC1)N1CCCCC1`, the figures for the EC50 (with H4; in assay [1]) were > 120 µM (not active) and 0.956 µM (active), respectively. Turning to `COc1ccc(-c2cn(-c3ccc(C)cc3)c(=O)n2CC(=O)Nc2ccc(OC)cc2OC)cc1`, the IC50 on Protein skinhead-1 was > 100 µM (inactive). Turning to `CCn1cc(C(=O)OCC(=O)Nc2cccc(Cl)c2Cl)c(=O)c2ccc(C)nc21`, the EC50 in assay [2] was > 150 µM (inactive); in assay [3], > 38 µM (not active). With `O=C(NCC(=O)N1CCN(c2ccccc2O)CC1)c1cccs1`, the AC50 in [4] was 4.14 µM (active). On the same count and under the same terms, as for `Cn1c(-c2ccc(F)cc2)cnc1NCc1cc2c(cc1[N+](=O)[O-])OCO2`, the figure is 7.43 µM (active).

Turning to `O=C(O)c1ccc(CSc2nc3ccccc3o2)cc1`, the AC50 in assay [4] was 51.7 µM (active); at Cytochrome P450 1A2, 0.0501 µM (inconclusive); on Cytochrome P450 2C9, 39.8 µM (inconclusive). Consider `CCC1CCCCN1CCCNC(=O)C1CCN(c2ncnc3c2nc2n3CCCCC2)CC1` (stereo not drawn), for which the IC50 in assay [5] was > 20 µM (inactive).

Turning to `CC1Cc2ccccc2N1C(=O)C1CCN(S(=O)(=O)Cc2ccccc2)CC1` (stereo not drawn), the IC50 on Protein skinhead-1 was > 100 µM (inactive). As for `Cc1ccccc1C(=O)OC1OC(O)=C(Cl)/C1=N\c1ccccc1` (stereo not drawn), the IC50 in assay [5] is > 20 µM (inactive).

With `Nc1cc(O)nc(SCC(=O)Nc2ccc(S(=O)(=O)N3CCOCC3)cc2)n1`, the IC50 at Protein skinhead-1 was > 100 µM (inactive). Further, the AC50 was 28.2 µM (inconclusive) on Cytochrome P450 3A4 and 20 µM (inconclusive) at Cytochrome P450 2C9. In the case of `COC(=O)c1ccc(=O)n(Cc2ccco2)c1`, the IC50 on Protein skinhead-1 is > 100 µM (inactive). With `O=C1N=C(N/N=C/c2cccnc2)SC1Cc1ccc(SC(F)F)cc1` (stereo not drawn), the EC50 in assay [2] is > 150 µM (inactive); in [6], 11.9 µM (active); in assay [7], 3.31 µM (active); in assay [8] it was 12.2 µM (active); in assay [9], 12.3 µM (active); in assay [3], 1.87 µM (active). Also, the EC50 in assay [1] is 0.969 µM (active); in assay [10], 3.44 µM (active); in the assay with Streptococcus, 8.36 µM (active). Besides, in the assay on INS1, the AC50 is 2.56 µM (active).

On to `COc1ccc(C2=CC(c3c(C)nn(-c4ccccc4)c3Cl)n3nnnc3N2)cc1OC` (stereo not drawn), for which the CC50 was 24.1 µM (active) in assay [11] and > 40 µM (active) in assay [12]. For the molecule `Fc1ccc(-c2nnc(-c3ccc(F)cc3)o2)cc1`, the IC50 at Protein skinhead-1 was > 100 µM (inactive).

As to `COc1ccc(NC(=O)CN2CCN(Cc3ccc4c(c3)OCO4)CC2)cc1OC`, on Protein skinhead-1, the IC50 is > 100 µM (inactive).

For the molecule `Cn1c(/C=N/Nc2nc3ccccc3[nH]2)nc2ccccc21`, the results for the EC50 in [2] and in assay [3] were 35.5 µM (active) and > 38 µM (not active), respectively. Besides, the CC50 in [12] is > 40 µM (active). On to `CNc1nc(N)c(C(=O)C23CC4CC(CC(C4)C2)C3)s1`, for which the AC50 in assay [4] is 0.437 µM (active). For `C#CCOCCOCCOCCNc1nc(N2CCN(C(=O)[C@H](CO)n3cc([C@@H](N)C(C)C)nn3)CC2)nc(N2CCN(C(=O)[C@H](CCCCN)n3cc([C@@H](N)[C@H](C)CC)nn3)CC2)n1`, the IC50 in assay [5] is > 20 µM (inactive). As to `O=C(O)c1ccc(-c2nc(-c3ccc(Cl)cc3)cs2)cc1`, the concentration for a half-maximal effect (EC50) in assay [2] was 112 µM (active); in assay [3], 4.58 µM (active).

Turning to `CC(=O)N1CCN(C(=S)c2ccc(N(C)C)cc2)CC1`, the AC50 in assay [4] was 1.13 µM (active). For `Cc1nc(NC(=O)c2c(-c3ccccc3)noc2C)sc1C(=O)N(C)C`, the EC50 in assay [2] was > 160 µM (inactive); in assay [3], > 38 µM (not active). Turning to `Clc1ccc(-c2nc(-c3cnccn3)no2)cc1`, the IC50 at Protein skinhead-1 was 74.1 µM (inactive). As for `Sc1nnc(C2CCCCC2)n1/N=C/C(Cl)=C\c1ccccc1`, the CC50 in assay [11] was 15.2 µM (active). The AC50 in assay [13] is 5.5 µM (active). With `Nc1ccc(N2CCN(C(=O)c3ccco3)CC2)cc1`, the AC50 in [4] is 0.719 µM (active); at Cytochrome P450 2C19 it was 8.91 µM (inconclusive); at Cytochrome P450 2C9, 10 µM (inconclusive). Turning to `Fc1ccc2nc(Nc3nc4c(s3)CCCC4)sc2c1`, the EC50 in the assay with H4 is 0.986 µM (active). Consider `O=C(c1cc(-c2ccccc2)on1)N1CCc2ccccc2C1`, for which, on Protein skinhead-1, the IC50 is > 100 µM (inactive). Turning to `Cc1nc(C(F)(F)F)c(C(=O)O)cc1-c1nc(-c2ccccc2)cs1`, in assay [4], the concentration at half-maximal activity (AC50) is 11.4 µM (active). Take `CCOc1ccccc1C(=O)N/N=C/c1ccoc1`: the EC50 is 138 µM (active) in assay [2] and 3.33 µM (active) in [3]. `Clc1ccc(CSc2ncn(-c3ccccc3)n2)cc1`: the IC50 at Protein skinhead-1 was 10.3 µM (active). Consider `COc1ccc(OC)c2c(C)cc(N3CCCN(C)CC3)nc12`, for which the AC50 in assay [4] is 22 µM (active).

On to `Nc1cc(N)nc(SCc2cccc(F)c2)n1`, for which the EC50 is > 150 µM (inactive) in assay [2] and > 38 µM (not active) in assay [3]. `CCn1cc(-c2ccccc2)c(C(=O)O)c1-c1ccc(OC)cc1`: the AC50 in [4] is 5.6 µM (active). For the molecule `Clc1ccc(Nc2ccc(-n3ccnc3)nn2)cc1Cl`, in [12], the CC50 is > 40 µM (active). In addition, the IC50 at Protein skinhead-1 was > 100 µM (inactive). Turning to `O=C(/C=C/c1ccc2c(c1)OCCCO2)c1ccc2ccccc2c1O`, in assay [11], the CC50 was 30.7 µM (active). Moreover, the AC50 in [13] was 5.21 µM (active). Take `Brc1cccc(OCCSc2ncccn2)c1`: on Protein skinhead-1, the IC50 was 63.6 µM (inactive). As to `COc1cc(-c2cc(C(=O)Nc3ccc(S(N)(=O)=O)cc3)c3ccccc3n2)cc(OC)c1OC`, the IC50 in assay [5] was > 20 µM (inactive).
